Assay results as given in patent US8617614B2, “Sustained release preparation for tissue regeneration therapy” (Ono Pharmaceutical Co., Ltd., priority 2006, dated 2013).

What was measured:
[1] = test system: rat common carotid artery occlusion-disobliteration (4-VO) model; experiment: Water maze learning ability, rat 4-VO model; assay type: in vivo
Description: Nine-week-old male Crlj:WI rats were intraperitoneally administered pentobarbital sodium and, while under anesthesia, were secured in the prone position to a brain stereotaxic instrument. An occipital incision was made in the skin and muscle layer of the neck region, the left and right pterygoid foramina of the first cervical vertebra were exposed, and the vertebral arteries were thermocoagulated by inserting the tip of a soldering iron into each pterygoid foramen, thereby permanently occluding the bilateral vertebral arteries. Next, a midline incision was made in the anterior region of the neck, the common carotid arteries on both sides were exposed and detached, a silicone tube was passed under the arteries and placed annularly around the arteries, following which the skin of the neck region was sutured together. On the day after vertebral arterial cauterization, the animals were anesthetized with diethyl ether, then immobilized in the supine position. Both common carotid arteries were exposed using the silicone tube that had been placed on the common carotid arteries in the neck region and were temporarily occluded for 10 minutes with Sugita clips, then reopened. Aside from ischemia and disobliteration, the same procedure was carried out also on a normal group ([…]).
• Test Group 1: 4-VO+medium, 8 days • Test Group 2: 4-VO+present drug, 10 mg/kg, twice daily, for 8 days • Test Group 3: 4-VO+present drug, 1 mg/kg, twice daily, for 42 days (evaluation of nerve cell number only) (2) Evaluation of number of nerve cells in CA1 region excised from brain (Groups 4 to 7) following measurement of water maze learning ability (Groups 4 to 7) • Test Group 4: normal (sham group)+medium, 42 days (normal control) • Test Group 5: 4-VO+medium, 42 days (solvent control) • Test Group 6: 4-VO+present drug, 10 mg/kg, twice daily for 42 days • Test Group 7: 4-VO+solvent for 8 days+present drug, 10 mg/kg, twice daily, for 34 days (evaluation of regenerative activity) (3) Pathology: Perfusion and fixing of the brain was carried out on day 8 in Test Groups 1 and 2, and on the day after the water maze learning ability test in Groups 4 to 7. The number of nerve cells was then counted by the same method as described above in Test 1. In Test Group 3, after drug administration was stopped, the brains were fixed at the same time as in Test Groups 4 to 7. (4) Measurement of Water Maze Learning Ability
Using Test Groups […], the […] were investigated with a Morris water maze in such a way as to avoid a bias between the groups.
A clear acrylic platform (about 12 cm in diameter and about 30 cm in height) which cannot be visually detected and a circular pool (about 148 cm in diameter and about 44 cm in height) made of gray vinyl chloride and filled with water (water temperature, 17 to 18° C.) to a height of about 32 cm so that the platform is hidden by the water were used.
The pool was divided into four quadrants, the platform was placed at the center of the fourth quadrant (about 36 cm from the center of the pool), and light bulbs were placed at the perimeter of the pool to provide a spatial reference.
Following the final drug dose, a drug-free period of at least 2 weeks was provided, after which the rat was placed in the pool from one of several points A to E with its head facing the circular pool wall, and the time it took to reach the platform (goal latency; seconds) was measured with a stopwatch (the measurement time was a maximum of 90 seconds). When the rat reached the platform within 90 seconds and remained on the platform for 30 seconds, it was judged to be aware of the platform location and measurement was brought to an end.
Goal latency measurements were carried out twice daily (once in the morning, and once in the afternoon) on days 1 to 4. The rat was placed in the pool from the various points A to E with its head facing the wall of the circular pool. […]

[2] = test system: STZ induced diabetes model; experiment: Nephropathy ameliorating action: 24 h urinary excretion, STZ induced diabetes model; assay type: in vivo; details: urine, week 12; STZ rat; Test Group 3: 3 mg/kg oral twice daily
Protocol: Female Sprague-Dawley rats (8- to 11-week-old; Japan SLC, Inc.) were intraperitoneally administered 40 mg/kg of a citrate buffer (pH, approx. 4.5) of streptozotocin (STZ; Sigma). A normal control group was intraperitoneally given only the citrate buffer. Administration was carried out in accordance with the intended route of administration for clinical use. In Test Group 3, forced administration was carried out orally using a disposable syringe barrel and a rat stomach probe. In Test Group 4, intramuscular administration was carried out uniformly at four places within the muscle along the sciatic nerve in the femoral portion of the left leg. For subcutaneous administration in test Group 5, the animals were ether anesthetized, and subcutaneous administration was carried out in the dorsal region using a disposable syringe barrel and a disposable 25 G syringe needle. The volume of solution administered was computed based on the latest body weight. In week 12 from the start of test substance administration, the rats were transferred to a metabolic cage, given water ad libitum, and the urine was collected for 24 hours. […] Using the 7170 Clinical Analyzer (Hitachi, Ltd.), the total urinary protein (pyrogallol red method), creatinine (creatinase/F-DAOS method) and urine sugar were measured.

SDF-1 = SDF-1 production promoting effect, angiogenesis kit culture, ELISA; assay type: cell-based, human; details: 100 nmol/L
Protocol: An angiogenesis kit (Kurabo Industries Ltd.) composed of normal human umbilical vein endothelial cells and normal human skin fibroblasts was procured and used.
Using a carbon dioxide incubator (BNA-121D) and using Angiogenesis Culture 2 provided with the angiogenesis kit as the liquid culture, culturing was carried out in a wet environment at 37° C. with 5% carbon dioxide/95% air.
Immediately after the kit arrived, the cells were cultured for 3 hours, following which the liquid culture was replaced and culturing was continued. Three days after the start of culturing, the liquid culture was again replaced. Six days after the start of culturing, treatment with the present drug was carried out by replacing the liquid culture. The treatment concentration was set to 100 nmol/L in each case. DMSO treatment was carried out as a negative control. Six, 24, 48 and 72 hours after treatment with the present drug, the culture supernatant was collected and furnished for measurement of the growth factors. The measured growth factors were EGF and SDF-1.
The culture supernatant was measured with the following ELISA kits.
Human SDF-1α Immunoassay (R&D Systems Inc., DSA00)

[3] = Test Group 6: 10 mg/kg oral twice daily 42 days
[4] = Test Group 7: solvent 8 days, then 10 mg/kg oral twice daily 34 days

## O=C(O)COc1cccc2c1CCC=C2CCO/N=C(\c1ccccc1)c1cccnc1 [present drug, ({5-[2-({[(1E)-phenyl(pyridin-3-yl)methylene]amino}oxy)ethyl]-7,8-dihydronaphthalen-1-yl}oxy)acetic acid]
[1]; [3]
  Distance traveled until rat reaches platform, AUC for Days 1 to 4 (average): 3932.8 ± 1115.1
  Goal latency (seconds) Acquisition trials Day 1 (average): 71.8 ± 18.3 s
  Goal latency (seconds) Acquisition trials Day 2 (average): 58.8 ± 22.1 s
  Goal latency (seconds) Acquisition trials Day 3 (average): 41.3 ± 28.8 s
  Goal latency (seconds) Acquisition trials Day 4 (average): 33.9 ± 23.2 s
  Goal latency (seconds) Acquisition trials Trials 1 to 8 (average): 51.5 ± 11.9 s
  Goal latency, AUC for Days 1 to 4 (average): 152.9 ± 42.7
[1]; Test Group 6: oral 10 mg/kg twice daily
  goal latency (seconds) and distance traveled relative to the solvent control group (Test Group 5): significant shortening
[1]; Test Group 7: medium up to day 8, oral 10 mg/kg twice daily from day 9
  goal latency (seconds) and distance traveled relative to the solvent control group (Test Group 5): significant shortening
[1]; [4]
  Distance traveled until rat reaches platform, AUC for Days 1 to 4 (average): 3850.5 ± 832.5
  Goal latency (seconds) Acquisition trials Day 1 (average): 73.8 ± 15.2 s
  Goal latency (seconds) Acquisition trials Day 2 (average): 55.4 ± 29.6 s
  Goal latency (seconds) Acquisition trials Day 3 (average): 41.7 ± 26.7 s
  Goal latency (seconds) Acquisition trials Day 4 (average): 25.8 ± 15.2 s
  Goal latency (seconds) Acquisition trials Trials 1 to 8 (average): 49.2 ± 10.1 s
  Goal latency, AUC for Days 1 to 4 (average): 146.9 ± 40.5
[2]
  Total excretion (mg/24 hrs) Creatinine: 116.76 ± 58.15 mg/24 hrs
  Total excretion (mg/24 hrs) Total protein: 245.7 ± 231.9 mg/24 hrs
SDF-1; 72 hours after treatment
  SDF-1 relative to the solvent control group: significantly increased
SDF-1; culture supernatant 72 hours after treatment
  SDF-1, Drug group: 383 ± 36.0 pg/mL
